The text below walks through data of US8183234B2, “Tricyclic guanidine derivatives as sodium-proton exchange inhibitors” (Piramal Life Sciences Limited, priority 2004, dated 2012).

The structures appear in SMILES notation.

By melting point is commonly meant the temperature of the solid-liquid transition.

The compound `CS(=O)(=O)O.CS(=O)(=O)O.CS(=O)(=O)O.CS(=O)(=O)O.Cc1cc(C(=O)NC(=N)N)cc2c1Oc1c(Cl)cc(N3CCN(CCN4CCNCC4)CC3)cc1CS2(=O)=O` [Example 124, N-{4-Chloro-6-methyl-10,10-dioxo-2-[4-(2-piperazin-1-yl-ethyl)-piperazin-1-yl)-10,11-dihydro-5-oxa-10lambda*6*-thia-dibenzo[a,d]cycloheptene-8-carbonyl}-guanidine tetramesylate] showed a melting point of 182 to 184 °C.

`CS(=O)(=O)O.CS(=O)(=O)O.Cc1cc(C(=O)NC(=N)N)cc2c1Oc1c(Cl)cc(N3CCN(C4CC4)CC3)cc1CS2(=O)=O` [Example 125, N-[4-Chloro-2-(4-cyclopropyl-piperazin-1-yl)-6-methyl-10,10-dioxo-10,11-dihydro-5-oxa-10lambda*6*-thia-dibenzo[a,d]cycloheptene-8-carbonyl]-guanidine dimesylate]: the melting point was in the range of 245 to 248 °C.

On to `CS(=O)(=O)O.CS(=O)(=O)O.CS(=O)(=O)O.Cc1cc(C(=O)NC(=N)N)cc2c1Oc1c(Cl)cc(N3CCN(Cc4cccc(N)c4)CC3)cc1CS2(=O)=O` [Example 127, N-{2-[4-(3-Amino-benzyl)-piperazin-1-yl]-4-chloro-6-methyl-10,10-dioxo-10,11-dihydro-5-oxa-10lambda*6*-thia-dibenzo[a,d]cycloheptene-8-carbonyl}-guanidine trimesylate], for which the melting point lay within 214 to 215 °C.

In the case of `CS(=O)(=O)O.CS(=O)(=O)O.CS(=O)(=O)O.Cc1cc(C(=O)NC(=N)N)cc2c1Oc1c(Cl)cc(N3CCN(Cc4cccnc4)CC3)cc1CS2(=O)=O` [Example 128, N-[4-Chloro-6-methyl-10,10-dioxo-2-(4-pyridin-3-ylmethyl-piperazin-1-yl)-10,11-dihydro-5-oxa-10lambda*6*-thia-dibenzo[a,d]cycloheptene-8-carbonyl]-guanidine trimesylate], the melting point fell in the range of 190 to 192 °C.

On to `CS(=O)(=O)O.CS(=O)(=O)O.Cc1cc(C(=O)NC(=N)N)cc2c1Oc1c(Cl)cc(N3CCN(C4CCC4)CC3)cc1CS2(=O)=O` [Example 129, N-[4-Chloro-2-(4-cyclobutyl-piperazin-1-yl)-6-methyl-10,10-dioxo-10,11-dihydro-5-oxa-10lambda*6*-thia-dibenzo[a,d]cycloheptene-8-carbonyl]-guanidine dimesylate], for which the melting point lay in the range of 275 to 277 °C.

Turning to `CS(=O)(=O)O.CS(=O)(=O)O.Cc1cc(C(=O)NC(=N)N)cc2c1Oc1c(Cl)cc(NC(=O)CN3CCCCC3)cc1CS2(=O)=O` [Example 134, N-(4-Chloro-8-guanidinocarbonyl-6-methyl-10,10-dioxo-10,11-dihydro-5-oxa-10lambda*6*-thia-dibenzo[a,d]cycloheptene-2-yl)-2-piperidin-1-yl-acetamide dimesylate], the melting point was 178 to 180 °C.

`CS(=O)(=O)O.Cc1cc(C(=O)NC(=N)N)cc2c1Oc1c(Cl)cc(NC(=O)CO)cc1CS2(=O)=O` [Example 136, N-(4-Chloro-8-guanidinocarbonyl-6-methyl-10,10-dioxo-10,11-dihydro-5-oxa-10lambda*6*-thia-dibenzo[a,d]cycloheptene-2-yl)-2-hydroxy-acetamide methane sulfonic acid salt] came in with a melting point of 180 to 182 °C.

In turn, `CS(=O)(=O)O.CS(=O)(=O)O.Cc1cc(C(=O)NC(=N)N)cc2c1Oc1c(Cl)cc(NC(=O)Cn3ccnc3)cc1CS2(=O)=O` [Example 137, N-(4-Chloro-8-guanidinocarbonyl-6-methyl-10,10-dioxo-10,11-dihydro-5-oxa-10lambda*6*-thia-dibenzo[a,d]cyclohepten-2-yl)-2-imidazol-1-yl-acetamide dimesylate] came in with a melting point of 252 to 254 °C.

`CS(=O)(=O)O.CS(=O)(=O)O.Cc1cc(C(=O)NC(=N)N)cc2c1Oc1c(Cl)cc(NC(=O)CNC3CC3)cc1CS2(=O)=O` [Example 138, N-(4-Chloro-8-guanidinocarbonyl-6-methyl-10,10-dioxo-10,11-dihydro-5-oxa-10lambda*6*-thia-dibenzo[a,d]cyclohepten-2-yl)-2-cyclopropylamino-acetamide dimesylate]: the melting point fell in the range of 188 to 190 °C.

Consider `CS(=O)(=O)O.CS(=O)(=O)O.Cc1cc(C(=O)NC(=N)N)cc2c1Oc1c(Cl)cc(NC(=O)CNC3CCCCC3)cc1CS2(=O)=O` [Example 139, N-(4-Chloro-8-guanidinocarbonyl-6-methyl-10,10-dioxo-10,11-dihydro-5-oxa-10lambda*6*-thia-dibenzo[a,d]cyclohepten-2-yl)-2-cyclohexylamino-acetamide dimesylate], for which the melting point lay within 194 to 196 °C.

Compound `CS(=O)(=O)O.CS(=O)(=O)O.Cc1cc(C(=O)NC(=N)N)cc2c1Oc1c(Cl)cc(NC(=O)CNC3CCCC3)cc1CS2(=O)=O` [Example 140, N-(4-Chloro-8-guanidinocarbonyl-6-methyl-10,10-dioxo-10,11-dihydro-5-oxa-10lambda*6*-thia-dibenzo[a,d]cyclohepten-2-yl)-2-cyclopentylamino-acetamide dimesylate] showed a melting point of 190 to 192 °C.

`CS(=O)(=O)O.CS(=O)(=O)O.Cc1cc(C(=O)NC(=N)N)cc2c1Oc1c(Cl)cc(NC(=O)CNC(C)C)cc1CS2(=O)=O` [Example 141, N-(4-Chloro-8-guanidinocarbonyl-6-methyl-10,10-dioxo-10,11-dihydro-5-oxa-10lambda*6*-thia-dibenzo[a,d]cyclohepten-2-yl)-2-isopropylamino-acetamide dimesylate] registered a melting point of 192 to 194 °C.

The compound `CS(=O)(=O)O.CS(=O)(=O)O.Cc1cc(C(=O)NC(=N)N)cc2c1Oc1c(Cl)cc(NC(=O)CN(C)C)cc1CS2(=O)=O` [Example 142, N-(4-Chloro-8-guanidinocarbonyl-6-methyl-10,10-dioxo-10,11-dihydro-5-oxa-10lambda*6*-thia-dibenzo[a,d]cyclohepten-2-yl)-2-dimethylamino-acetamide dimesylate] returned a melting point of 190 to 191 °C.

As for `CS(=O)(=O)O.CS(=O)(=O)O.Cc1cc(C(=O)NC(=N)N)cc2c1Oc1c(Cl)cc(NC(=O)CNC3CCC3)cc1CS2(=O)=O` [Example 143, N-(4-Chloro-8-guanidinocarbonyl-6-methyl-10,10-dioxo-10,11-dihydro-5-oxa-10lambda*6*-thia-dibenzo[a,d]cycloheptene-2-yl)-2-cyclobutylamino-acetamide dimesylate], the melting point was 190 to 192 °C.

For `CS(=O)(=O)O.CS(=O)(=O)O.Cc1cc(C(=O)NC(=N)N)cc2c1Oc1c(Cl)cc(NC(=O)CN3CCN(c4cccc(C(F)(F)F)c4)CC3)cc1CS2(=O)=O` [Example 145, N-(4-Chloro-8-guanidinocarbonyl-6-methyl-10,10-dioxo-10,11-dihydro-5-oxa-10lambda*6*-thia-dibenzo[a,d]cyclohepten-2-yl)-2-[4-(3-trifluoromethyl-phenyl)-piperazin-1-yl]-acetamide dimesylate], the melting point came out at 222 °C.

In turn, `CNCC(=O)Nc1cc(Cl)c2c(c1)CS(=O)(=O)c1cc(C(=O)NC(=N)N)cc(C)c1O2.CS(=O)(=O)O.CS(=O)(=O)O` [Example 146, N-(4-Chloro-8-guanidinocarbonyl-6-methyl-10,10-dioxo-10,11-dihydro-5-oxa-10lambda*6*-thia-dibenzo[a,d]cyclohepten-2-yl)-2-methylamino-acetamide dimesylate] came in with a melting point of 188 to 190 °C.

Compound `CS(=O)(=O)O.CS(=O)(=O)O.Cc1cc(C(=O)NC(=N)N)cc2c1Oc1c(Cl)cc(NC(=O)CN3CCCC3)cc1CS2(=O)=O` [Example 147, N-(4-Chloro-8-guanidinocarbonyl-6-methyl-10,10-dioxo-10,11-dihydro-5-oxa-10lambda*6*-thia-dibenzo[a,d]-cyclohepten-2-yl)-2-pyrrolidine-1-yl-acetamide dimesylate] registered a melting point of 190 to 192 °C.

The compound `CS(=O)(=O)O.CS(=O)(=O)O.CS(=O)(=O)O.Cc1cc(C(=O)NC(=N)N)cc2c1Oc1c(Cl)cc(N(CCN3CCCC3)C(=O)CNC3CC3)cc1CS2(=O)=O` [Example 150, N-(4-Chloro-8-guanidinocarbonyl-6-methyl-10,10-dioxo-10,11-dihydro-5-oxa-10-lambda*6*-thia-dibenzo[a,d]cycloheptene-2-yl)-2-cyclopropylamino-N-(2-pyrrolidin-1-yl-ethyl)-acetamide trimesylate] yielded a melting point of 150 to 152 °C.

Take `CS(=O)(=O)O.CS(=O)(=O)O.Cc1cc(C(=O)NC(=N)N)cc2c1Oc1c(N)cccc1CS2(=O)=O` [Example 159, N-[4-Amino-6-methyl-10,10-dioxo-10,11-dihydro-5-oxa-10lambda*6*-thia-dibenzo[a,d]cycloheptene-8-carbonyl)-guanidine dimesylate]: the melting point was 255 to 257 °C.

In turn, `CS(=O)(=O)O.CS(=O)(=O)O.CS(=O)(=O)O.Cc1ccc(CNc2cc(Cl)c3c(c2)CS(=O)(=O)c2cc(C(=O)NC(=N)N)cc(C)c2O3)s1` [Example 164, N-{4-Chloro-6-methyl-2-[(5-methyl-thiophen-2-ylmethyl)-amino]-10,10-dioxo-10,11-dihydro-5-oxa-10lambda*6*-thia-dibenzo[a,d]cycloheptene-8-carbonyl}-guanidine trimesylate] registered a melting point of 230 to 232 °C.

Compound `CS(=O)(=O)O.CS(=O)(=O)O.Cc1cc(C(=O)NC(=N)N)cc2c1Oc1c(Cl)cc(NCc3cccnc3)cc1CS2(=O)=O` [Example 165, N-{4-Chloro-6-methyl-10,10-dioxo-2-[(pyridin-3-ylmethyl)-amino]-10,11-dihydro-5-oxa-10lambda*6*-thia-dibenzo[a,d]cycloheptene-8-carbonyl}-guanidine dimesylate] registered a melting point of 238 °C.

`CS(=O)(=O)O.CS(=O)(=O)O.Cc1cc(C(=O)NC(=N)N)cc2c1Oc1c(Cl)cc(N3CCN(CCO)CC3)cc1CS2(=O)=O` [Example 197, N-{4-Chloro-2-[4-(2-hydroxy-ethyl)-piperazin-1-yl]-6-methyl-10,10-dioxo-10,11-dihydro-5-oxa-10lambda*6*-thia-dibenzo[a,d]cycloheptene-8-carbonyl}-guanidine dimesylate] yielded a melting point of 185 to 187 °C.
